The numbers were not newly measured in patent publication US10537636B2, “Treatment of cancer with therapeutic monoclonal antibody specific for a tumor associated antigen and an immune adjuvant” (Oncoquest, Inc., priority 2017, dated 2020), which cites them from elsewhere.

This data set concerns advanced ovarian cancer. Conditions: mono-immunotherapy following front-line chemotherapy.

As to oregovomab, the clinical outcome was “failed to improves clinical outcome”.
